Test results as given in the NIST ThermoML archive (doi:10.1016/j.fluid.2007.04.023).

Conditions: Liquid, Vibrating tube method

CCCCCCCCCCCCC [tridecane]
Conditions | mass density [kg/m3]
342.64 K, 1022 kPa | 722.03
342.64 K, 2014 kPa | 722.93
342.64 K, 3025 kPa | 723.84
342.64 K, 4021 kPa | 724.7
342.64 K, 5020 kPa | 725.59
342.64 K, 6020 kPa | 726.44
342.64 K, 7008 kPa | 727.27
342.64 K, 8026 kPa | 728.15
342.64 K, 9007 kPa | 728.98
342.64 K, 10010 kPa | 729.81
342.64 K, 11012 kPa | 730.63
342.64 K, 12014 kPa | 731.46
342.64 K, 13011 kPa | 732.27
342.64 K, 14008 kPa | 733.03
342.64 K, 15029 kPa | 733.84
342.64 K, 16006 kPa | 734.58
342.64 K, 17016 kPa | 735.35
342.64 K, 18019 kPa | 736.09
342.64 K, 19006 kPa | 736.85
342.64 K, 20001 kPa | 737.59
342.64 K, 21023 kPa | 738.34
342.64 K, 22008 kPa | 739.06
342.64 K, 23005 kPa | 739.79
342.64 K, 24032 kPa | 740.52
342.64 K, 25024 kPa | 741.14
352.47 K, 1013 kPa | 714.88
352.47 K, 2022 kPa | 715.88
352.47 K, 3010 kPa | 716.8
352.47 K, 4020 kPa | 717.71
352.47 K, 5019 kPa | 718.65
352.47 K, 6011 kPa | 719.55
352.47 K, 7017 kPa | 720.47
352.47 K, 8014 kPa | 721.35
352.47 K, 9022 kPa | 722.24
352.47 K, 10031 kPa | 723.11
352.47 K, 11010 kPa | 723.98
352.47 K, 12003 kPa | 724.82
352.47 K, 13024 kPa | 725.71
352.47 K, 14013 kPa | 726.54
352.47 K, 15007 kPa | 727.34
352.47 K, 16016 kPa | 728.16
352.47 K, 17007 kPa | 728.94
352.47 K, 18020 kPa | 729.77
352.47 K, 19011 kPa | 730.53
352.47 K, 20013 kPa | 731.29
352.47 K, 21032 kPa | 732.07
352.47 K, 22020 kPa | 732.84
352.47 K, 23020 kPa | 733.6
352.47 K, 24021 kPa | 734.36
352.47 K, 25024 kPa | 735.14
362.25 K, 1020 kPa | 707.72
362.25 K, 2026 kPa | 708.74
362.25 K, 3018 kPa | 709.77
362.25 K, 4006 kPa | 710.71
362.25 K, 5021 kPa | 711.73
362.25 K, 6019 kPa | 712.7
362.25 K, 7029 kPa | 713.67
362.25 K, 8017 kPa | 714.54
362.25 K, 9011 kPa | 715.51
362.25 K, 10011 kPa | 716.42
362.25 K, 11021 kPa | 717.35
362.25 K, 12018 kPa | 718.24
362.25 K, 13014 kPa | 719.11
362.25 K, 14000 kPa | 719.97
362.25 K, 15017 kPa | 720.85
362.25 K, 16026 kPa | 721.7
362.25 K, 17019 kPa | 722.52
362.25 K, 18034 kPa | 723.36
362.25 K, 19016 kPa | 724.17
362.25 K, 20004 kPa | 725
362.25 K, 21015 kPa | 725.8
362.25 K, 22022 kPa | 726.63
362.25 K, 23008 kPa | 727.42
362.25 K, 24034 kPa | 728.22
362.25 K, 25010 kPa | 729.02
